US10125126B2, “N-cycloalkyl-N-[(heterocyclylphenyl)methylene]-(thio)carboxamide derivatives” (BAYER CROPSCIENCE AG, priority 2012, dated 2018)

Experiments:
[1] = log P by HPLC on a reversed-phase column (C 18), EEC Directive 79/831 Annex V.A8; assay type: physicochemical; settings: logP
How it was run: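 Column at 40° C; mobile phases 0.1% aqueous formic acid and acetonitrile, linear gradient 10% to 90% acetonitrile. Calibrated with unbranched alkan-2-ones (3 to 16 carbons) of known log P; values from retention times by linear interpolation between two successive alkanones.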

Uromyces appendiculatus = test: In vivo preventive test on Uromyces appendiculatus (bean rust); settings: 500 ppm of active ingredient; bean plants; 11 days after contamination
How it was run: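 Saxa bean plants at 2-leaf stage, grown at 24° C., sprayed preventively with compound; 24 h later inoculated with U. appendiculatus spores (150 000 spores per mL). Percent efficacy graded 11 days after inoculation versus solvent-treated controls.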

Sphaerotheca fuliginea = test: In vivo preventive test on Sphaerotheca fuliginea (powdery mildew on cucurbits); settings: Podosphaera fuliginea, 288 h, 500 ppm of active ingredient; gherkin plants; 12 days after contamination; read-out: Efficacy
How it was run: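 Gherkin plants ("Vert petit de Paris") grown at 24 °C were sprayed at cotyledon stage Z11; controls received acetone/tween/DMSO/water without active. Inoculation 24 h later by spraying cotyledons with 100 000 spores/mL. Efficacy (%) graded 12 days post-contamination versus controls.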

In the case of `CC(C)c1ccc(-c2csc3ccccc23)cc1CN(C(=O)c1c(C(F)F)nn(C)c1F)C1CC1` [I.157, N-[5-(1-benzothiophen-3-yl)-2-isopropylbenzyl]-N-cyclopropyl-3-(difluoromethyl)-5-fluoro-1-methyl-1H-pyrazole-4-carboxamide], the chromatographic logP [1] is reported as 5.17, the Efficacy (Uromyces appendiculatus) is reported as 100% and the pest or weed control at 500 ppm (Sphaerotheca fuliginea) is reported as 100%.
